Results as given in patent US10729738B2, “Hindered disulfide drug conjugates” (priority 2015, dated 2020).
*1 amine or outer side, *2 acyl side, *3 side chain or, on linkers, in order; H or OH if unused. Where a SMILES comes first, the peptide text is derived from it. [ ]: non-standard residue; d: D form. The star is where a group is joined. X6 = CC(C)(COC(=O)*)SSc1nc2c([N+](=O)[O-])cccc2[nH]1; Dolaproine = CO[C@@H]([C@@H]1CCCN1)[C@@H](C)C(=O)O; X11 = CC(C)(COC(=O)*)SSc1nc2ccc(C(=O)O)cc2[nH]1; X15 = C[C@H](COC(=O)*)SSc1ccc([N+](=O)[O-])cn1; X3 = CC(C)(COC(=O)*)SSc1ccc([N+](=O)[O-])cn1; Dil = CC[C@H](C)[C@H](NC)[C@@H](CC(=O)O)OC; PABC = O=C(OCc1ccc(N[*:1])cc1)[*:2]; X2 = C[C@@H](N*)[C@@H](O)c1ccccc1; X20 = Cn1cnnc1SSC(C)(C)COC(=O)*; X18 = CC(C)(COC(=O)*)SSC(=N)N; NMeV = CN[C@H](C(=O)O)C(C)C

Key:
calf DNA = assay: DNA binding potential (incubation with calf DNA, extraction, LC/MS); settings: 1 mg/mL calf DNA, 37° C., 1 hour
Description: For DNA binding analysis, compounds 7 and 8 were incubated at […] with 1 mg/mL calf DNA for 1 hour in 0.5 mL of 10 mM Bis-Tris, pH 7.1 at 37° C. Ethyl acetate (1 mL) was used to extract the reaction mixture twice by vortex (20 seconds) and centrifugation (4 min at 5,000×g). The combined organic extracts were concentrated under vacuum and reconstituted in 0.15 mL of 1:1 water/methanol before injection on LC/MS. The samples were analyzed by LC/MS/UV on Sciex TripleTOF 5600 on a Hypersil Gold C18 column (100×2.1, […], Thermo Scientific) in a positive ESI ion mode. The column was eluted by a gradient of buffer A (0.1% formic acid) to buffer B (0.1% formic acid in acetonitrile), 5% B 0-0.5 min, 5-25% B 0.5-8 min, 25-75% B 8-13 min, and 75-95% B 13-13.5 min, 95% B 13.5-14.5 min, 95-5% B 14.5-15 min at 0.4 mL/min.

[1] = tested on: target-expressing cell lines; settings: target-expressing cell lines (Hartley 2011); cited from earlier work
[2] = target: human serum albumin Cys-34 (Homo sapiens, UniProt P02768); assay: Conjugation of activated disulfide-MMAE molecules to human serum albumin (Conjugate Ratio, LC/MS); settings: disulfide MMAE compound at 10 molar equivalents relative to HSA, 75 mM Tris pH 8.5, ~16 hours at room temperature
Sequence of human serum albumin Cys-34 (P02768 25-609): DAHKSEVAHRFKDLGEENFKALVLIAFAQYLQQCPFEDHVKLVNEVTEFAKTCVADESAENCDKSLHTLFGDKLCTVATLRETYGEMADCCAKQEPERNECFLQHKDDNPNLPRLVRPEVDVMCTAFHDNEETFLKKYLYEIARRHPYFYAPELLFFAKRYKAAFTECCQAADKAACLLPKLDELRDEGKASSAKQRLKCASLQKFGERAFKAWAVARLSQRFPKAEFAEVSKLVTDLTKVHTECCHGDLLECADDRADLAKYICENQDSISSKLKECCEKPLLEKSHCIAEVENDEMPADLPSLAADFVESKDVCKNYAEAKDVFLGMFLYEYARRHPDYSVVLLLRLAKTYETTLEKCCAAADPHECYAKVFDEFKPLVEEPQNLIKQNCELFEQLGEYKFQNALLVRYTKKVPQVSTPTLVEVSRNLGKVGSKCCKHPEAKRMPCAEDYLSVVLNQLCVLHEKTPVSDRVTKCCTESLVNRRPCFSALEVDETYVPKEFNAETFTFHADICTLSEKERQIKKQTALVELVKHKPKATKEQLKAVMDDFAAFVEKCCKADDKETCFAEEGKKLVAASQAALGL
Description: In a first evaluation, MMAE was conjugated to human serum albumin (HSA). […] This Cys residue is blocked as a mixed disulfide with Cys or glutathione, preventing complete conjugation of other molecules to this residue. […] Conjugate reactions were analyzed by LC/MS. The extent of the expected MMAE-HSA conjugate formed during the reaction is represented by the “Conjugate Ratio”, measured by dividing the abundance of the MS peak for the MMAE-HSA conjugate by the sum total abundance of all peaks observed. The ideal value for the Conjugate Ratio is 1.0. The results are reported in table 31 below wherein the wavy line for the leaving group represents the point of attachment to the disulfide bond, and “HSA CR” refers to human serum albumin conjugate ratio.

[3] = target: T1, penetratin (AntP) peptide (Drosophila melanogaster, UniProt P02833); assay: Conjugation of activated disulfide-MMAE molecules to penetratin (AntP) peptide (% Product); settings: peptide 25 uM, disulfide MMAE 5 equivalents, 75 mM Tris pH 8.5 and 10% DMF, ~16 hours at room temperature, UV peak area
T1 construct: C-terminal amide (CONH2); made in house; host or cells: chemical synthesis (Fmoc solid-phase peptide synthesis)
Description: In a second evaluation, MMAE was conjugated to penetratin (AntP) peptide. The AntP peptide, with sequence H2N-[…]-CONH2 (SEQ ID NO:1) bearing a free Cys thiol at the C-terminus, was synthesized via standard Fmoc solid-phase peptide synthesis methods. This peptide was conjugated at a concentration of 25 uM to disulfide MMAE molecules with varying leaving groups (5 equivalents) in a buffered solution composed of 75 mM Tris, pH 8.5 and 10% DMF for ˜16 hours at room temperature. Extent of the reaction was measured by dividing the integrated area for the UV peak of the MMAE-AntP conjugate by the sum of all peaks (“% Product”). The ideal value for % Product is 100%. The results are reported in table 31 below wherein the wavy line for the leaving group represent the point of attachment to the disulfide bond, and “AntP % P” refers to penetratin (AntP) peptide % product.

SK-BR-3 cells = assay: In vitro IC50 of MMAE ADCs, Cell Titer-Glo, SK-BR-3; type: cell-based; settings: 5 days
Description: (§1) The in vitro IC50 of ADC compounds MMAE 1, MMAE 2, MMAE 5 and MMAE 6 against SK-BR-3 and KPL-4 cells was evaluated. The cells were plated in 96-well plates (SK-BR-3 at 5000 cell per well; KPL-4 at 1500 cells […]) in cysteine free RPMI+10% FBS+20 mM glutamine+50 pM cysteine media and allowed to adhere overnight. Media was then removed and was replaced with fresh media containing different ADC concentrations. Cell viability was measured 5 days after drug administration using Cell Titer-Glo.

KPL-4 cells = assay: In vitro IC50 of MMAE ADCs, Cell Titer-Glo, KPL-4; type: cell-based; settings: 5 days
Description: as §1

[4] = In vitro disulfide cleavage and immolation by incubation with cysteine or glutathione (LC/MS); type: physicochemical; settings: for Percentage of all products: pH 7.0, 37° C.
Description: In a first phase of the experiment, disulfide cleavage and immolation by incubation with cysteine and glutathione—with the thiol concentrations mimic those in plasma and cancer cells—was investigated using unconjugated small molecule model systems with para-nitro-pyridyl disulfide-containing linker drug analogs 1, 2 and 11 below. In particular, cleavage and immolation was evaluated in vitro by incubation at […] with cysteine ([…] or 200 μM) or glutathione (GSH, 4 mM) in 100 mM Tris buffer pH 7.0 containing 5% methanol at 37° C. Aliquots were taken at specified time points and the samples were analyzed by LC/MS on Sciex TripleTOF 5600 on a Hypersil Gold C18 column (100×2.1, […], Thermo Scientific). The column was eluted by a gradient of buffer A (0.1% formic acid in 10 mM ammonium acetate) to buffer B (0.1% formic acid in 10 mM ammonium acetate in 90% acetonitrile), 5% B 0-0.5 min, 5-25% B 0.5-8 min, 25-75% B 8-13 min, and 75-95% B 13-13.5 min, 95% B 13.5-14.5 min, 95-5% B 14.5-15 min at 0.4 mL/min. Under these conditions, para-nitropyridyl thiol was eluted at 5.3 min. All products (compounds 1, 2, 11, 3a, 3b, 4a, 4b, 12a, 12 b, 6, 7, 13 and 8) were separated and characterized by LC/MS/MS in a positive ESI ion mode. All analytes had the protonated molecular MH^+ as the major species with little source fragmentation. Full scan accurate mass peak areas were used to estimate relative abundance of each component and the disappearance of 1, 2, and 11 estimated relative full scan peak areas was consistent with that estimated based on the relative abundance compared to time 0 by MS or UV. The results are reported in Table 15 below and the analytical results are presented in Table 16 below where “Cmpd” refers to compound, “RT” refers to retention time in minutes, and “Calc. Mass” refers to calculated mass. The relative abundance of disulfide cleavage and immolation products over time were evaluated and are disclosed in FIGS. 12A to 12C, 13A to 13C, 14A to 14C and 15A to 15C where the products were monitored by LC/MS from incubations of linker drugs 1, 2, and 11 at pH 7.0 and 37° C. in the presence of: 0.2 mM cysteine (FIGS. 12A, 12B and 12C); 0.03 mM cysteine (FIGS. 13A, 13B and 13C); 4 mM glutathione (FIGS. 14A, 14B and 14C); and 0.03 mM glutathione (FIGS. 15A, 15B and 15C). In FIGS. 12A to 12C, 13A to 13C, 14A to 14C and 15A to 15C, compound reference numbers 1, 2, 3a, 3b, 4a, 4b, 6, 7, 8, 11, 12a, 12b and 13 correspond to the structures below.

C=C1C[C@H]2C=Nc3cc(OCCCCCOc4cc5c(cc4OC)C(=O)N4CC(=C)C[C@H]4C=N5)c(OC)cc3C(=O)N2C1 [Compound 8]
DNA binding (calf DNA): quickly binds to DNA
Fraction unextractable after incubation in DNA solution (calf DNA): approximately 94%
IC50 [1]: ~0.05 nM

O=[N+]([O-])c1ccc(S)nc1 [Compound 5, para-nitropyridyl thiol]
pKa (pKa of thiol compounds): 4.7 to 4.8

CC[C@H](C)[C@@H]([C@@H](CC(=O)N1CCC[C@H]1[C@H](OC)[C@@H](C)C(=O)N[C@H](C)[C@@H](O)c1ccccc1)OC)N(C)C(=O)[C@@H](NC(=O)[C@H](C(C)C)N(C)C(=O)OCC(C)(C)SSc1nc2ccc(C(=O)O)cc2[nH]1)C(C)C (X11-[NMeV]V[Dil][Dolaproine]-X2)
HAS CR (HSA Conjugation Ratio) [2]: 0.64
AntP % P (penetratin (AntP) peptide % product) [3]: 20%

CC[C@H](C)[C@@H]([C@@H](CC(=O)N1CCC[C@H]1[C@H](OC)[C@@H](C)C(=O)N[C@H](C)[C@@H](O)c1ccccc1)OC)N(C)C(=O)[C@@H](NC(=O)[C@H](C(C)C)N(C)C(=O)OCC(C)(C)SSC(=N)N)C(C)C (X18-[NMeV]V[Dil][Dolaproine]-X2)
HAS CR (HSA Conjugation Ratio) [2]: 0.98
AntP % P (penetratin (AntP) peptide % product) [3]: 90%

CC[C@H](C)[C@@H]([C@@H](CC(=O)N1CCC[C@H]1[C@H](OC)[C@@H](C)C(=O)N[C@H](C)[C@@H](O)c1ccccc1)OC)N(C)C(=O)[C@@H](NC(=O)[C@H](C(C)C)N(C)C(=O)OCC(C)(C)SSc1nc2c([N+](=O)[O-])cccc2[nH]1)C(C)C (X6-[NMeV]V[Dil][Dolaproine]-X2)
HAS CR (HSA Conjugation Ratio) [2]: 0.65
AntP % P (penetratin (AntP) peptide % product) [3]: 26%

CC[C@H](C)[C@@H]([C@@H](CC(=O)N1CCC[C@H]1[C@H](OC)[C@@H](C)C(=O)N[C@H](C)[C@@H](O)c1ccccc1)OC)N(C)C(=O)[C@@H](NC(=O)[C@H](C(C)C)N(C)C(=O)OCc1ccc(NC(=O)OC[C@@H](C)SSc2ccc([N+](=O)[O-])cn2)cc1)C(C)C [MMAE 6] ({X15-PABC}-[NMeV]V[Dil][Dolaproine]-X2)
SK-BR-3 IC50 (SK-BR-3 cells): 0.78 µg/mL
KPL-4 IC50 (KPL-4 cells): 0.411 µg/mL

C=C1C[C@H]2C=Nc3cc(OCCCCCOc4cc5c(cc4OC)C(=O)N4CC(=C)C[C@H]4[C@H](O)N5C(=O)OCC4(S)CC4)c(OC)cc3C(=O)N2C1 [Compound 7]
Percentage of all products ([4]; 30 μM cysteine, 1 h): 5.1%
Percentage of all products ([4]; 30 μM cysteine, 4 h): 9.7%
Percentage of all products ([4]; 30 μM cysteine, 24 h): 11.6%
Percentage of all products ([4]; 200 μM cysteine, 1 h): 44.7%
Percentage of all products ([4]; 200 μM cysteine, 4 h): 73.6%
Percentage of all products ([4]; 200 μM cysteine, 24 h): 87.3%
Percentage of all products ([4]; 4 mM GSH, 1 h): 80.8%
Percentage of all products ([4]; 4 mM GSH, 4 h): 89.7%
Percentage of all products ([4]; 4 mM GSH, 24 h): 92.3%
Immolation of thiol intermediate ([4]; incubation with cysteine or glutathione): did not appreciably immolate and appeared to be stable
DNA binding (calf DNA): does not bind to DNA
pKa (pKa of thiol compounds): 4.7 to 4.8

CC[C@H](C)[C@@H]([C@@H](CC(=O)N1CCC[C@H]1[C@H](OC)[C@@H](C)C(=O)N[C@H](C)[C@@H](O)c1ccccc1)OC)N(C)C(=O)[C@@H](NC(=O)[C@H](C(C)C)N(C)C(=O)OCC(C)(C)SSc1ccc([N+](=O)[O-])cn1)C(C)C (X3-[NMeV]V[Dil][Dolaproine]-X2)
HAS CR (HSA Conjugation Ratio) [2]: 0.11
AntP % P (penetratin (AntP) peptide % product) [3]: 14%

CC[C@H](C)[C@@H]([C@@H](CC(=O)N1CCC[C@H]1[C@H](OC)[C@@H](C)C(=O)N[C@H](C)[C@@H](O)c1ccccc1)OC)N(C)C(=O)[C@@H](NC(=O)[C@H](C(C)C)N(C)C(=O)OCC(C)(C)SSc1nncn1C)C(C)C (X20-[NMeV]V[Dil][Dolaproine]-X2)
HAS CR (HSA Conjugation Ratio) [2]: 0.66
AntP % P (penetratin (AntP) peptide % product) [3]: 17%
